Source: patent publication US11179501B2, “Bone morphogenetic protein pathway activation, compositions for ossification, and methods related thereto” (Emory University, priority 2011, dated 2021)

Key:
C2C12 cells [1] = assay: BMP-Noggin competitive alkaline phosphatase (ALP) assay; format: cell-based, Mouse; settings: for Fold increase in Noggin-Inhibition ALP Assay over BMP alone control: BMP-2 90-100 ng/ml plus noggin 100-120 ng/ml, 72 hours; for cell lifting from culture plates: BMP-Noggin competitive ALP assay, low cell number and low yield of protein
Description: (§1) Their activity was evaluated by determining the potentiation of alkaline phosphatase activity in sub-optimal doses of BMP in the presence or absence of exogenously added noggin.
Mouse C2C12 cells and Dulbecco's modified Eagle's medium (DMEM) were purchased from ATCC (Manassas, Va.). The non-heat inactivated fetal bovine serum (FBS) was purchased from HyClone Laboratories, Inc. (Logan, Utah). The C2C12 cells at passages 5 to 10 were subcultured in T-75 cm^2 flasks in DMEM supplemented with 10% FBS at 37° C. in 5% CO2 with humidification. When the flasks reached 80% confluence, the cells were trypsinized and seeded in triplicate.
The C2C12 cells were plated at 200,000 cells/well in 6-well plates and grown overnight in DMEM containing 10% FBS. On day 2, the culture medium was replaced with DMEM containing 2% FBS and the cells were treated with 90-100 ng/ml of BMP-2 (as noted in each experiment), various concentrations of compound, and 100-120 ng/ml of noggin (as noted in each experiment) for 72 hours. The cells were washed with phosphate-buffered saline (PBS) and lysed by addition of lysis buffer (10 mM Tris-HCl pH 8.0, 1 mM MgCl2 and 1.0% Triton X-100). The cell lysates were centrifuged for 5 minutes at 13,000×g. The supernatant was removed and the aliquots were assayed for ALP activity and protein amount. The ALP activity was measured in triplicate using an ALP assay kit (Sigma-Aldrich, St. Louis, Mo.) in microtiter plates. The protein amount was determined with Bio-Rad protein assay reagent (Bio-Rad, Hercules, Calif.) using bovine serum albumin (BSA) as a standard. The ALP activity (nmoles of p-nitrophenol per ml) was normalized to the protein amount (nmoles of p-nitrophenol per μg).

C2C12 cells [2] = assay: Alkaline phosphatase (ALP) assay: potentiation of BMP-2-induced ALP activity; settings: for Fold increase in BMP-Potentiated ALP activity over BMP control: C2C12 cells, 50 ng/ml BMP-2, 72 hours
Description: as §1
The BMP-potentiating activities of compounds may be evaluated by monitoring several markers of the osteoblastic phenotype corresponding to various time points during phenotype differentiation of C2C12 cells towards terminally differentiated osteoblasts.
The C2C12 cells at passages 5 to 10 were subcultured in T-75 cm^2 flasks in DMEM supplemented with 10% FBS at 37° C. in 5% CO2 with humidification. When the flasks reached 80% confluence, the cells were trypsinized and seeded in triplicate.
The C2C12 cells were plated at 200,000 cells/well in 6-well plates and grown overnight in DMEM containing 10% FBS. On day 2, the culture medium was replaced with DMEM containing 2% FBS and the cells were treated with various concentrations of compound for 24 hours. On day 3, the culture medium was replaced with DMEM containing 2% FBS and the cells were treated with 50 ng/ml of BMP-2 and various concentrations of compound for 72 hours. The cells were washed with phosphate-buffered saline (PBS) and lysed by addition of lysis buffer (10 mM Tris-HCl pH 8.0, 1 mM MgCl2 and 1.0% Triton X-100). The cell lysates were centrifuged for 5 minutes at 13,000×g. The supernatant was removed and the aliquots were assayed for ALP activity and protein amount. The ALP activity was measured in triplicate using an ALP assay kit (Sigma-Aldrich, St. Louis, Mo.) in microtiter plates. The protein amount was determined with Bio-Rad protein assay reagent (Bio-Rad, Hercules, Calif.) using bovine serum albumin (BSA) as a standard. The ALP activity (nmoles of p-nitrophenol per ml) was normalized to the protein amount (nmoles of p-nitrophenol per μg).

Sprague Dawley rats = assay: Collagen disc implantation with macrolides in rat ectopic model; format: in vivo; parameters: Ave. (Xray score): scale not given here; settings: for Ave. (Xray score) / Results (bone, animals with bone of 4): 100 ul, collagen, no BMP-2, 4 weeks
Description: Sprague Dawley rats about 5-6 weeks of age were chest implanted with a collagen disc (diameter of 1.0 cm and height of 2.0 mm; total volume of 150 cubic millimeters) and doses of macrolides in the absence of BMP-2. After 4 weeks the rats were sacrificed and evaluated for bone growth. […] In certain embodiments, the disclosure contemplates local bone formation for fracture repair, segmental bone defects, spine fusion, bone grafting, and regional bone enhancement for osteopenic bones before they fracture (e.g. hip, vertebral body, etc) by deliver locally to induce local bone formation.

With `CCC(=O)O[C@]1(C(=O)SCF)[C@H](C)C[C@H]2[C@@H]3C[C@H](F)C4=CC(=O)C=C[C@]4(C)[C@@]3(F)[C@@H](O)C[C@@]21C` [Fluticasone Propionate, 6,9-difluoro-11-hydroxy-16-methyl-3-oxo-17-(1-oxopropoxy)-androsta-1,4-diene-17-carbothioic acid S-(fluoromethyl) ester] the “Fold increase in Noggin-Inhibition ALP Assay over BMP alone control” value (C2C12 cells [1]) was 3 and the “Fold increase in BMP-Potentiated ALP activity over BMP control” value (“Fold increase … over BMP control” for short) (C2C12 cells [2]) was 6.
For `C=CCC1C=C(C)CC(C)CC(OC)C2OC(O)(C(=O)C(=O)N3CCCCC3C(=O)OC(/C(C)=C/C3CCC(O)C(OC)C3)C(C)C(O)CC1=O)C(C)CC2OC` (stereo not drawn) [Tacrolimus, 5,6,8,11,12,13,14,15, 16,17,18,19,24,25,26,26a-hexadecahydro-5,19-dihydroxy-3-[(1E)-2-[4-hydroxy-3-methoxycyclohexyl]-1-methylethenyl]-14,16-dimethoxy-4,10,12,18-tetramethyl-8-(2-propen-1-yl)-15,19-epoxy-3H-pyrido[2,1-c][1,4]oxaazacyclotricosine-1,7,20,21(4H,23H)-tetrone], the “Fold increase in Noggin-Inhibition ALP Assay over BMP alone control” value (C2C12 cells [1]) was 5, the “Fold increase … over BMP control” value (C2C12 cells [2]) was 7 and the “Ave. (Xray score)” value (Sprague Dawley rats; dose 10 mM) was 0. For the same compound, the “Results (bone, animals with bone of 4)” value (Sprague Dawley rats; dose 10 mM) was “No bone (0 of 4)”, the “Ave. (Xray score)” value (Sprague Dawley rats; dose 15 mM) was 0.5 and the “Results (bone, animals with bone of 4)” value (Sprague Dawley rats; dose 15 mM) was “Bone (1 of 4)”. The “Ave. (Xray score)” value (Sprague Dawley rats; dose 20 mM) was 3.25, the “Results (bone, animals with bone of 4)” value (Sprague Dawley rats; dose 20 mM) was “Bone (3 of 4)” and the “Ave. (Xray score)” value (Sprague Dawley rats; dose 25 mM) was 4.25. The “Results (bone, animals with bone of 4)” value (Sprague Dawley rats; dose 25 mM) was “Bone (4 of 4)”, the “Ave. (Xray score)” value (Sprague Dawley rats; dose 30 mM) was 2.5 and the “Results (bone, animals with bone of 4)” value (Sprague Dawley rats; dose 30 mM) was “Bone (3 of 4)”. The “Ave. (Xray score)” value (Sprague Dawley rats; dose 35 mM) was 4, the “Results (bone, animals with bone of 4)” value (Sprague Dawley rats; dose 35 mM) was “Bone (4 of 4)” and the “De novo bone formation” value (Sprague Dawley rats; local, collagen disc, chest implant, absence of BMP-2, 4 weeks) was “De novo bone formation is demonstrated locally”.
With `CC1=C(/C=C/C(C)=C/C=C/C(C)=C\C(=O)O)C(C)(C)CCC1` [Isotretinoin, isotretinoin] the “Fold increase in Noggin-Inhibition ALP Assay over BMP alone control” value (C2C12 cells [1]) was 3 and the “Fold increase … over BMP control” value (C2C12 cells [2]) was 30.
With `C=CCc1ccc(O)c(-c2ccc(O)c(CC=C)c2)c1` [Honokiol, 3′,5-di-2-propen-1-yl-[1,1′-biphenyl]-2,4′-diol] the “Fold increase in Noggin-Inhibition ALP Assay over BMP alone control” value (C2C12 cells [1]) was 16 and the “Fold increase … over BMP control” value (C2C12 cells [2]) was 5.
In the case of `CC(=O)S[C@@H]1CC2=CC(=O)CC[C@]2(C)[C@H]2CC[C@@]3(C)[C@@H](CC[C@@]34CCC(=O)O4)[C@H]12` [Spironolactone, spironolactone], the “Fold increase in Noggin-Inhibition ALP Assay over BMP alone control” value (C2C12 cells [1]) was 4 and the “Fold increase … over BMP control” value (C2C12 cells [2]) was 3.
`CC1=C(/C=C/C(C)=C/C=C/C(C)=C/C(=O)O)C(C)(C)CCC1` [Retinoic acid, (2E,4E,6E,8E)-3,7-dimethyl-9-(2,6,6-trimethylcyclohexen-1-yl)nona-2,4,6,8-tetraenoic acid] was tested, and the “Fold increase in Noggin-Inhibition ALP Assay over BMP alone control” value (C2C12 cells [1]) was 2 and the “Fold increase … over BMP control” value (C2C12 cells [2]) was 11.
In the case of `O=C(O)CCCc1ccc(N(CCCl)CCCl)cc1` [Chlorambucil, chlorambucil], the “Fold increase in Noggin-Inhibition ALP Assay over BMP alone control” value (C2C12 cells [1]) was 4 and the “Fold increase … over BMP control” value (C2C12 cells [2]) was 3.
`CCCc1nc2c(C)cc(-c3nc4ccccc4n3C)cc2n1Cc1ccc(-c2ccccc2C(=O)O)cc1` [Telmisartan, 4′-((1,7′-dimethyl-2′-propyl-1H,3′H-[2,5′-bibenzo[d]imidazol]-3′-yl)methyl)[1,1′-biphenyl]-2-carboxylic acid] was tested, and the “Fold increase in Noggin-Inhibition ALP Assay over BMP alone control” value (C2C12 cells [1]) was 3 and the “Fold increase … over BMP control” value (C2C12 cells [2]) was 3.
With `Nc1ccn([C@@H]2O[C@H](CO)[C@@H](O)[C@@H]2O)c(=O)n1` [cytarabine] the “cell lifting from culture plates” value (C2C12 cells [1]) was “caused cell lifting from culture plates”.
In the case of `CCOC(=O)C1=C(C)NC(C)=C(C(=O)OC)C1c1cccc(Cl)c1Cl` (stereo not drawn) [felodipine], the “cell lifting from culture plates” value (C2C12 cells [1]) was “caused cell lifting from culture plates”.
`COc1cc(C)c(/C=C/C(C)=C/C=C/C(C)=C/C(=O)O)c(C)c1C` [Acitretin, acitretin] was tested, and the “Fold increase in Noggin-Inhibition ALP Assay over BMP alone control” value (C2C12 cells [1]) was 3 and the “Fold increase … over BMP control” value (C2C12 cells [2]) was 33.
In the case of `CC(=O)NC[C@H]1CN(c2ccc(N3CCOCC3)c(F)c2)C(=O)O1` [Linezolid, N-[[(5S)-3-[3-fluoro-4-(4-morpholinyl)phenyl]-2-oxo-5-oxazolidinyl]methyl]-acetamide], the “Fold increase in Noggin-Inhibition ALP Assay over BMP alone control” value (C2C12 cells [1]) was 3 and the “Fold increase … over BMP control” value (C2C12 cells [2]) was 5.
In the case of `Clc1ccc(CON=C(Cn2ccnc2)c2ccc(Cl)cc2Cl)c(Cl)c1` [oxiconazole nitrate, 1-(2,4-dichlorophenyl)-2-(1H-imidazol-1-yl)ethanone O-(2,4-dichlorobenzyl) oxime], the “cell lifting from culture plates” value (C2C12 cells [1]) was “caused cell lifting from culture plates”.
`Clc1ccccc1C(c1ccccc1)(c1ccccc1)n1ccnc1` [Clotrimazole, 1-[(2-chlorophenyl)diphenylmethyl]-1H-imidazole] was tested, and the “Fold increase in Noggin-Inhibition ALP Assay over BMP alone control” value (C2C12 cells [1]) was 4, the “Fold increase … over BMP control” value (C2C12 cells [2]) was 7 and the “BMP-induced ALP activity” value (C2C12 cells [2]; nanomolar concentrations, FIG. 5) was “dose dependent increase”.
